In the supplement of paper PMC10307832:

Key:
Assay in all cases: relative viability (nuclei count vs DMSO), 5 days (fraction); higher = more cells survive
[1] = compound: C[C@H]([C@@H](C(=O)N)NC(=O)[C@@H]1CSSC[C@@H](C(=O)N[C@H](C(=O)N[C@@H](C(=O)N[C@H](C(=O)N1)CCCCN)CC2=CNC3=CC=CC=C32)CC4=CC=C(C=C4)O)NC(=O)[C@@H](CC5=CC=CC=C5)N)O [CAP-232] + CS(=O)(=O)N1CCN(Cc2cc3nc(-c4cccc5[nH]ncc45)nc(N4CCOCC4)c3s2)CC1 [Pictilisib] (partner 1 µM)
Procedure, shortened: (§1)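 Each reported value is a median over duplicate plates. It expresses relative viability: treated-well nuclei count divided by vehicle-well nuclei count. Lung cancer cell lines in 1536-well plates were dosed by pin tool a day after seeding, alone with one drug or with a fixed anchor-drug dose plus five library-drug doses (not always all listed) in √10 steps, and nuclei were counted after 5 days.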

[2] = compound: C[C@H]([C@@H](C(=O)N)NC(=O)[C@@H]1CSSC[C@@H](C(=O)N[C@H](C(=O)N[C@@H](C(=O)N[C@H](C(=O)N1)CCCCN)CC2=CNC3=CC=CC=C32)CC4=CC=C(C=C4)O)NC(=O)[C@@H](CC5=CC=CC=C5)N)O [CAP-232] + CS(=O)(=O)CCNCc1ccc(-c2ccc3ncnc(Nc4ccc(OCc5cccc(F)c5)c(Cl)c4)c3c2)o1 [Lapatinib] (partner 2 µM)
Procedure, shortened: as §1

[3] = compound: C[C@H]([C@@H](C(=O)N)NC(=O)[C@@H]1CSSC[C@@H](C(=O)N[C@H](C(=O)N[C@@H](C(=O)N[C@H](C(=O)N1)CCCCN)CC2=CNC3=CC=CC=C32)CC4=CC=C(C=C4)O)NC(=O)[C@@H](CC5=CC=CC=C5)N)O [CAP-232] + C[C@]1(O)C[C@@H](c2nc(-c3ccc4ccc(-c5ccccc5)nc4c3)c3c(N)nccn32)C1 [Linsitinib] (partner 1 µM)
Procedure, shortened: as §1

[4] = compound: C[C@H]([C@@H](C(=O)N)NC(=O)[C@@H]1CSSC[C@@H](C(=O)N[C@H](C(=O)N[C@@H](C(=O)N[C@H](C(=O)N1)CCCCN)CC2=CNC3=CC=CC=C32)CC4=CC=C(C=C4)O)NC(=O)[C@@H](CC5=CC=CC=C5)N)O [CAP-232] + C[C@@H](Oc1cc(-c2cnn(C3CCNCC3)c2)cnc1N)c1c(Cl)ccc(F)c1Cl [Crizotinib] (partner 1 µM)
Procedure, shortened: as §1

[5] = compound: C[C@H]([C@@H](C(=O)N)NC(=O)[C@@H]1CSSC[C@@H](C(=O)N[C@H](C(=O)N[C@@H](C(=O)N[C@H](C(=O)N1)CCCCN)CC2=CNC3=CC=CC=C32)CC4=CC=C(C=C4)O)NC(=O)[C@@H](CC5=CC=CC=C5)N)O [CAP-232] + CC1(C)CCC(c2ccc(Cl)cc2)=C(CN2CCN(c3ccc(C(=O)NS(=O)(=O)c4ccc(N[C@H](CCN5CCOCC5)CSc5ccccc5)c(S(=O)(=O)C(F)(F)F)c4)cc3)CC2)C1 [Navitoclax] (partner 0.5 µM)
Procedure, shortened: as §1

[6] = compound: C[C@H]([C@@H](C(=O)N)NC(=O)[C@@H]1CSSC[C@@H](C(=O)N[C@H](C(=O)N[C@@H](C(=O)N[C@H](C(=O)N1)CCCCN)CC2=CNC3=CC=CC=C32)CC4=CC=C(C=C4)O)NC(=O)[C@@H](CC5=CC=CC=C5)N)O [CAP-232] + Cc1nc(NC(=O)N2CCC[C@H]2C(N)=O)sc1-c1ccnc(C(C)(C)C(F)(F)F)c1 [Alpelisib] (partner 2 µM)
Procedure, shortened: as §1

[7] = compound: C[C@H]([C@@H](C(=O)N)NC(=O)[C@@H]1CSSC[C@@H](C(=O)N[C@H](C(=O)N[C@@H](C(=O)N[C@H](C(=O)N1)CCCCN)CC2=CNC3=CC=CC=C32)CC4=CC=C(C=C4)O)NC(=O)[C@@H](CC5=CC=CC=C5)N)O [CAP-232] + CC(C)C[C@H](NC(=O)[C@H](Cc1ccccc1)NC(=O)c1cnccn1)B(O)O [Bortezomib] (partner 0.002 µM)
Procedure, shortened: as §1

[8] = compound: C[C@H]([C@@H](C(=O)N)NC(=O)[C@@H]1CSSC[C@@H](C(=O)N[C@H](C(=O)N[C@@H](C(=O)N[C@H](C(=O)N1)CCCCN)CC2=CNC3=CC=CC=C32)CC4=CC=C(C=C4)O)NC(=O)[C@@H](CC5=CC=CC=C5)N)O [CAP-232] + COc1cc2c(Oc3ccc(NC(=O)C4(C(=O)Nc5ccc(F)cc5)CC4)cc3F)ccnc2cc1OCCCN1CCOCC1 [Foretinib] (partner 0.25 µM)
Procedure, shortened: as §1

[9] = compound: C[C@H]([C@@H](C(=O)N)NC(=O)[C@@H]1CSSC[C@@H](C(=O)N[C@H](C(=O)N[C@@H](C(=O)N[C@H](C(=O)N1)CCCCN)CC2=CNC3=CC=CC=C32)CC4=CC=C(C=C4)O)NC(=O)[C@@H](CC5=CC=CC=C5)N)O [CAP-232] + O=C(c1cc(Cc2n[nH]c(=O)c3ccccc23)ccc1F)N1CCN(C(=O)C2CC2)CC1 [Olaparib] (partner 8 µM)
Procedure, shortened: as §1

[10] = compound: C[C@H]([C@@H](C(=O)N)NC(=O)[C@@H]1CSSC[C@@H](C(=O)N[C@H](C(=O)N[C@@H](C(=O)N[C@H](C(=O)N1)CCCCN)CC2=CNC3=CC=CC=C32)CC4=CC=C(C=C4)O)NC(=O)[C@@H](CC5=CC=CC=C5)N)O [CAP-232]
Procedure, shortened: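 Viability is treated-well nuclei as a fraction of vehicle-well nuclei, reported as the median across plates. Before counting, lung cancer cell lines were kept overnight at 37 °C in 1536-well plates, pinned with five √10-spaced library-drug doses on vehicle-anchored plates, and left 5 days without medium change, then fixed, permeabilised and Hoechst-stained in one step, imaged at 4× and counted by MetaXpress. A plate passed only if control CV was below 25% and at least one doubling occurred.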

[11] = compound: C[C@H]([C@@H](C(=O)N)NC(=O)[C@@H]1CSSC[C@@H](C(=O)N[C@H](C(=O)N[C@@H](C(=O)N[C@H](C(=O)N1)CCCCN)CC2=CNC3=CC=CC=C32)CC4=CC=C(C=C4)O)NC(=O)[C@@H](CC5=CC=CC=C5)N)O [CAP-232] + Cc1cc(Nc2cc(N3CCN(C)CC3)nc(Sc3ccc(NC(=O)C4CC4)cc3)n2)n[nH]1 [Tozasertib] (partner 0.1 µM)
Procedure, shortened: as §1

[12] = compound: C[C@H]([C@@H](C(=O)N)NC(=O)[C@@H]1CSSC[C@@H](C(=O)N[C@H](C(=O)N[C@@H](C(=O)N[C@H](C(=O)N1)CCCCN)CC2=CNC3=CC=CC=C32)CC4=CC=C(C=C4)O)NC(=O)[C@@H](CC5=CC=CC=C5)N)O [CAP-232] + CCNC(=O)c1noc(-c2cc(C(C)C)c(O)cc2O)c1-c1ccc(CN2CCOCC2)cc1 [Luminespib] (partner 0.01 µM)
Procedure, shortened: as §1

[13] = compound: C[C@H]([C@@H](C(=O)N)NC(=O)[C@@H]1CSSC[C@@H](C(=O)N[C@H](C(=O)N[C@@H](C(=O)N[C@H](C(=O)N1)CCCCN)CC2=CNC3=CC=CC=C32)CC4=CC=C(C=C4)O)NC(=O)[C@@H](CC5=CC=CC=C5)N)O [CAP-232] + N=C(N)NC(=N)NCCc1ccccc1 [Phenformin] (partner 250 µM)
Procedure, shortened: as §1

[14] = compound: C[C@H]([C@@H](C(=O)N)NC(=O)[C@@H]1CSSC[C@@H](C(=O)N[C@H](C(=O)N[C@@H](C(=O)N[C@H](C(=O)N1)CCCCN)CC2=CNC3=CC=CC=C32)CC4=CC=C(C=C4)O)NC(=O)[C@@H](CC5=CC=CC=C5)N)O [CAP-232] + COc1cccc2cc(-c3nc([C@H]4CC[C@H](C(=O)O)CC4)n4ncnc(N)c34)[nH]c12 [OSI-027] (partner 0.5 µM)
Procedure, shortened: as §1

[15] = compound: C[C@H]([C@@H](C(=O)N)NC(=O)[C@@H]1CSSC[C@@H](C(=O)N[C@H](C(=O)N[C@@H](C(=O)N[C@H](C(=O)N1)CCCCN)CC2=CNC3=CC=CC=C32)CC4=CC=C(C=C4)O)NC(=O)[C@@H](CC5=CC=CC=C5)N)O [CAP-232] + Cc1nc(Nc2ncc(C(=O)Nc3c(C)cccc3Cl)s2)cc(N2CCN(CCO)CC2)n1 [Dasatinib] (partner 0.075 µM)
Procedure, shortened: as §1

NCI-H1299
relative viability ([1]; first compound 0.4 µM): 0.747
relative viability ([1]; first compound 1.265 µM): 0.746
relative viability ([1]; first compound 4 µM): 0.626
relative viability ([1]; first compound 12.65 µM): 0.589
relative viability ([2]; first compound 0.4 µM): 1.03
relative viability ([2]; first compound 1.265 µM): 0.963
relative viability ([2]; first compound 4 µM): 0.908
relative viability ([2]; first compound 12.65 µM): 0.96
relative viability ([3]; first compound 0.4 µM): 1.15
relative viability ([3]; first compound 1.265 µM): 0.92
relative viability ([3]; first compound 4 µM): 1.06
relative viability ([3]; first compound 12.65 µM): 1.09
relative viability ([4]; first compound 0.4 µM): 0.955
relative viability ([4]; first compound 1.265 µM): 0.952
relative viability ([4]; first compound 4 µM): 0.941
relative viability ([4]; first compound 12.65 µM): 1.02
relative viability ([5]; first compound 0.4 µM): 1.04
relative viability ([5]; first compound 1.265 µM): 0.991
relative viability ([5]; first compound 4 µM): 1.1
relative viability ([5]; first compound 12.65 µM): 1.1
relative viability ([6]; first compound 0.4 µM): 1.04
relative viability ([6]; first compound 1.265 µM): 1.05
relative viability ([6]; first compound 4 µM): 1.03
relative viability ([6]; first compound 12.65 µM): 1.08
relative viability ([7]; first compound 0.4 µM): 1.02
relative viability ([7]; first compound 1.265 µM): 1.02
relative viability ([7]; first compound 4 µM): 1.06
relative viability ([7]; first compound 12.65 µM): 1.01
relative viability ([8]; first compound 0.4 µM): 1.09
relative viability ([8]; first compound 1.265 µM): 1.06
relative viability ([8]; first compound 4 µM): 1.08
relative viability ([8]; first compound 12.65 µM): 1.05
relative viability ([9]; first compound 0.4 µM): 0.942
relative viability ([9]; first compound 1.265 µM): 1.01
relative viability ([9]; first compound 4 µM): 0.977
relative viability ([9]; first compound 12.65 µM): 0.934
relative viability ([10]; 0.4 µM): 1.03
relative viability ([10]; 1.265 µM): 1.01
relative viability ([10]; 4 µM): 1.04
relative viability ([10]; 12.65 µM): 1.02

NCI-H1623
relative viability ([11]; first compound 0.4 µM): 0.713
relative viability ([11]; first compound 1.265 µM): 0.411
relative viability ([11]; first compound 4 µM): 0.465
relative viability ([11]; first compound 12.65 µM): 0.632
relative viability ([12]; first compound 0.4 µM): 0.503
relative viability ([12]; first compound 1.265 µM): 0.467
relative viability ([12]; first compound 4 µM): 0.557
relative viability ([12]; first compound 12.65 µM): 0.359
relative viability ([13]; first compound 0.4 µM): 0.589
relative viability ([13]; first compound 1.265 µM): 0.579
relative viability ([13]; first compound 4 µM): 0.603
relative viability ([13]; first compound 12.65 µM): 0.566
relative viability ([14]; first compound 0.4 µM): 0.412
relative viability ([14]; first compound 1.265 µM): 0.495
relative viability ([14]; first compound 4 µM): 0.488
relative viability ([14]; first compound 12.65 µM): 0.38
relative viability ([8]; first compound 0.4 µM): 0.945
relative viability ([8]; first compound 1.265 µM): 0.802
relative viability ([8]; first compound 4 µM): 0.849
relative viability ([8]; first compound 12.65 µM): 0.769
relative viability ([15]; first compound 0.4 µM): 0.612
relative viability ([15]; first compound 1.265 µM): 0.47
relative viability ([15]; first compound 4 µM): 0.521
relative viability ([15]; first compound 12.65 µM): 0.742
relative viability ([10]; 0.4 µM): 1.06
relative viability ([10]; 1.265 µM): 1.02
relative viability ([10]; 4 µM): 0.92
relative viability ([10]; 12.65 µM): 1.01
